Measured values as given in patent publication US20110092445A1, “Amyloid ß peptide analogues, oligomers thereof, processes for preparing and composi-tions comprising said analogues or oligomers, and their uses” (Abbott Laboratories, priority 2008, published 2011).
Bridges are numbered along the chain shown (N, C = ends). Where no end group is shown, it is not given here. The star is where a group is joined. Acm = CC(=O)NC*

Assays:
[1] = test system: globulomer-specific antibodies (mAb 5F7, mAb 7C6, rabbit polyclonal antiserum 5599); experiment: Direct ELISA, response to globulomer-specific antibodies; type: binding; settings: for change in affinity to the globulomer-specific antibodies upon truncation with thermolysin: after thermolysin truncation versus untruncated oligomer; for reactivity of cross-linked oligomers to the globulomer-specific antibodies: after intra-molecular cross-linking, FIGS. 14-16, 18; for display of the globulomer epitope: oligomers before thermolysin truncation, 5F7, 7C6, antiserum 5599
Description: (§1) Materials: Microtiterplates were Nunc Immuno Plate, Maxi-Sorb Surface, flat bottom, (Catalogue #439454). The conjugate (secondary antibody) was Donkey anti-mouse HRPO conjugate, Jackson Immuno Research, (Catalogue #715-035-150). The HRPO Substrate was 3,3′,5′5′-Tetramethylbenzidine Liquid substrate (TMB), Sigma, (Catalogue #T4444). Non-fat Dry Milk (NFDM), was from BioRad, (Catalogue #170-6404). All other chemicals were from conventional sources.
(§2) Buffers and solutions: PBST buffer: Sigma PBS made with 0.05% Tween 20. PBST with 0.5% BSA was made by dissolving […] BSA in 100 mL PBST. Blocking solution was 3% NFDM in PBST. Conjugate diluent was 1% NFDM in PBST. The coating buffer was 100 mM NaHCO3 pH8.2. The HRPO Stop Solution was 2 M H2SO4.
(§3) Coating the plates: The Aβ globulomer to be tested was diluted to 1.0 μg/mL in coating buffer. 100 μL were added to each well to be coated. Plate was sealed with sealing film and left at 4° C. overnight.
(§4) Plate Blocking: The coating solution was removed from the wells. Each well was optionally washed 2-3× with 150 μL of PBST. 300 μL of blocking solution were added (3% NFDM in PBST). Plate was covered with plate sealing film and incubated for ˜2 hrs at room temperature, with agitation.
(§5) Primary Antibody: The blocking solution was removed from the wells. Each well was optionally washed 2-3× with 150 μL of PBST. 100 μL of primary antibody solutions were added. For the full length N-Met Aβ(1-42) globulomer, solutions of 0.04 to 100 μg/mL of antibody 5F7 were used. The antibody was diluted using PBST with 0.5% BSA. The plate was covered with plate sealing film and incubated for ˜2 to 3 hrs at room temperature with agitation.
Secondary Antibody (HRPO Conjugate): The primary antibody solution was removed from the wells. Each well was washed 2-3× with 150 μL of PBST. 200 μL of secondary antibody (HRPO conjugate) solution diluted 1:5000 in PBST with 1% NFDM were added. The plate was covered with plate sealing film and incubated for ˜1 hr at room temperature with agitation.
Substrate Development: The conjugate solution was removed from the wells. Each well was washed 2-3× with 200 μL of PBST. 100 μL of HRPO substrate solution were added to each well. Color was allowed to develop under observation. It turned blue. The reaction was usually done in 5-10 minutes at room temperature. 50 μL of stop solution were added to each well. The blue color turned yellow. Absorbance at 450 nm was read using a microtiterplate reader within 30 min of addition of the stop solution.

[2] = test system: globulomer-specific monoclonal antibody 5F7; experiment: Direct ELISA, binding of globulomer-specific mAb 5F7 to coated oligomer; set-up: species or system murine; settings: FIG. 3A; for binding of the globulomer-specific monoclonal antibody 5F7 (direct ELISA response): N-Met Aβ(1-42) globulomer compared with mutant oligomer
Description: as §1, §2, §3, §4, §5
Secondary Antibody (HRPO Conjugate): The primary antibody solution was removed from the wells. Each well was washed 2-3× with 150 μL of PBST. 200 μL of secondary antibody (HRPO conjugate) solution diluted 1:5000 in PBST with 1% NFDM were added. […]
Substrate Development: The conjugate solution was removed from the wells. […] Absorbance at 450 nm was read using a microtiterplate reader within 30 min of addition of the stop solution.

[3] = for homogeneity of oligomers in sedimentation velocity experiments / hydrodynamic properties relative to wild-type N-Met Aβ(1-42) (truncated) globulomer: FIG. 5A-5C; for hydrodynamic homogeneity after truncation at residue 20 by thermolysin: presence (FIG. 5B) and absence (FIG. 5C) of 0.05% SDS
Description: Samples were loaded into standard two-sector cells using sapphire windows. All samples were examined using either a 4-hole or an 8-hole rotor.
Conditions were as follows: temperature: 20° C., rotor speed: 42,000 rpm, interference data was collected, absorbance data was collected at 280 nm in continuous mode with a radial step size of 0.003 cm. One data point was collected per step (no signal averaging). Typically, 200 scans or less were collected over the course of no more than 9 hrs.
A continuous S distribution analysis (C(s) analysis) was done as implemented in Sedfit v8.9 (P. Schuck (2000), “Size distribution analysis of macromolecules by sedimentation velocity ultracentrifugation and Lamm equation modeling”, Biophysical Journal 78:1606-1619) to understand the overall heterogeneity of the samples. Both radial and time independent noise were fit and removed from the data using a maximal entropy algorithm.

Row | Substance | change in affinity to the globulomer-specific antibodies upon truncation with thermolysin [1] | display of the globulomer epitope [1] | also measured
1 | Thermolysin truncation of disulfide stabilized (17C, 34C) Aβ(12-42) oligomer [example 5k] | expected increase in affinity | – | –
2 | Dissulfide stabilized (17C, 34C) N-Met Aβ(1-42) oligomer [example 2a] | – | – | binding of the globulomer-specific monoclonal antibody 5F7 (direct ELISA response) [2]: almost identical; display of the globulomer-specific epitope ([2]; mAb 5F7): still displays the globulomer-specific epitope; homogeneity of oligomers in sedimentation velocity experiments [3]: formed homogeneous oligomers; hydrodynamic properties relative to wild-type N-Met Aβ(1-42) (truncated) globulomer [3]: displayed better hydrodynamic properties
3 | MBS-linked (17K, 34C) N-Met Aβ(1-42) oligomer [example 4w2] | expected increase in affinity | – | reactivity of cross-linked oligomers to the globulomer-specific antibodies [1]: still display the appropriate reactivity
4 | Disulfide-stabilized (17C, 34C) Aβ(12-42) oligomer (VHHQKCVFFAEDVGSNKGAIIGCMVGGVVIA; disulfide 6-23; also: oligomer; UniProt P05067 683-713, looked up, variant L17C L34C) [example 4k] | – | displayed the globulomer epitope | –
5 | N-Met Aβ(1-42) globulomer [reference compound] | – | – | binding of the globulomer-specific monoclonal antibody 5F7 (direct ELISA response) [2]: almost identical; homogeneity of oligomers in sedimentation velocity experiments [3]: formed homogeneous oligomers; hydrodynamic homogeneity after truncation at residue 20 by thermolysin [3]: too heterogeneous to be examined
6 | Disulfide-stabilized (17C, 34C) Aβ(16-42) oligomer (KCVFFAEDVGSNKGAIIGCMVGGVVIA-OH; disulfide 2-19; also: oligomer; UniProt P05067 687-713, looked up, variant L17C L34C) [example 4s] | – | displayed the globulomer epitope | –
7 | Aβ(16-35)-amide oligomer (KLVFFAEDVGSNKGAIIGLM-NH2; also: oligomer; UniProt P05067 687-706, looked up, fragment) [example 3m] | – | not able to form oligomers that displayed the globulomer epitope | –
8 | [(17C, 34C) Aβ(16-35)-amide, cyclic] oligomer (KCVFFAEDVGSNKGAIIGCM-NH2; disulfide 2-19; also: oligomer; UniProt P05067 687-706, looked up, variant L17C L34C) [example 4o] | – | displayed the globulomer epitope | –
9 | (17C(ACM), 34C(ACM)) Aβ(16-35) oligomer (KC(Acm)VFFAEDVGSNKGAIIGC(Acm)M; also: oligomer; UniProt P05067 687-706, looked up, variant L17C L34C) [3l] | – | not able to form oligomers that displayed the globulomer epitope | –
10 | Thermolysin truncation of [(17C, 34C) Aβ(16-35)-amide, cyclic] oligomer [example 5o] | expected increase in affinity | – | –
11 | Thermolysin truncation of disulfide stabilized (17C, 34C) N-Met Aβ(1-42) oligomer [example 5y] | – | – | homogeneity of oligomers in sedimentation velocity experiments [3]: formed homogeneous oligomers; hydrodynamic properties relative to wild-type N-Met Aβ(1-42) (truncated) globulomer [3]: displayed better hydrodynamic properties; hydrodynamic homogeneity after truncation at residue 20 by thermolysin [3]: remains significantly more hydrodynamically homogeneous
12 | EDC/NHS-linked (17K, 34E) N-Met Aβ(1-42) oligomer [example 4x] | expected increase in affinity | – | reactivity of cross-linked oligomers to the globulomer-specific antibodies [1]: still display the appropriate reactivity
13 | SMCC-linked (17K, 34C) N-Met Aβ(1-42) oligomer [example 4w1] | expected increase in affinity | – | reactivity of cross-linked oligomers to the globulomer-specific antibodies [1]: still display the appropriate reactivity
14 | (17K, 34E) N-Met Aβ(1-42) oligomer [example 3x] | – | display the globulomer epitope | –
15 | (17K, 34C) N-Met Aβ(1-42) oligomer [example 3w] | – | display the globulomer epitope | –
16 | SIAB-linked (17K, 34C) N-Met Aβ(1-42) oligomer [example 4w3] | expected increase in affinity | – | reactivity of cross-linked oligomers to the globulomer-specific antibodies [1]: still display the appropriate reactivity
17 | Thermolysin truncation of disulfide stabilized (17C, 34C) Aβ(16-42) oligomer [example 5s] | expected increase in affinity | – | –
